Each structure is given as a SMILES string. Where a name gives a salt, the structure may show the parent alone.

One may read the melting point as the temperature of the solid-liquid transition. A word on the IC50: it is the concentration that gives 50% inhibition.

Tested on in one series: not given
Experiment: not given
Details: not given
`c1ccc(COCc2cccc(-n3cnc4cc(CN5CCCC5)ccc43)c2)nc1` gave a melting point of 192 to 194 °C. Still for that read-out and setting: next, `ON=Cc1ccc2c(c1)ncn2-c1cccc(CNCc2ccc(F)c(F)c2)c1`: 165 to 167 °C; `CC(=NO)c1ccc2c(c1)ncn2-c1cccc(COCc2ncnn2C)c1` (as salt: chloride) [Compound 22a, 1-{1-[3-(2-Methyl-2H-[1,2,4]triazol-3-ylmethoxymethyl)-phenyl]-1H-benzoimidazol-5-yl}-ethanone oxime]: 178.8 to 180.4 °C.

The compound `ON=Cc1ccc2c(c1)ncn2-c1cccc(COCc2ccccn2)c1` had a melting point of 154 to 154.8 °C. Same read-out and setting: in the case of `CCOC(=O)c1ccc2c(c1)ncn2-c1cccc(COCc2ccccn2)c1` it was 99.8 to 101.2 °C.

In another series the target is GABAA receptor complex (benzodiazepine modulatory unit). The series can be described thus: In vitro inhibition of 3H-flunitrazepam (3H-FNM) binding. Particulars: inhibition of specific binding of 3H-FNM (1 nM), cerebral cortex membranes from male Wistar rats, 40 min at 2° C. On the set-up: species or system rat. The procedure: In vitro Inhibition of ^3H-flunitrazepam (^3H-FNM) Binding
The GABA recognition site and the benzodiazepine modulatory unit can selectively be labelled with ^3H-flunitrazepam.
Preparations are performed at 0-4° C. unless otherwise indicated. Cerebral cortex from male Wistar rats (150-200 g) is homogenised for 5-10 sec in 20 ml Tris-HCl (30 mM, pH 7.4) using an Ultra-Turrax homogeniser. The suspension is centrifuged at 27,000×g for 15 min and the pellet is washed three times with buffer (centrifuged at 27,000×g for 10 min). The washed pellet is homogenized in 20 ml of buffer and incubated on a water bath (37° C.) for 30 min to remove endogenous GABA and then centrifuged for 10 min at 27,000×g. The pellet is then homogenized in buffer and centrifuged for 10 min at 27,000×g. The final pellet is resuspended in 30 ml buffer and the preparation is frozen and stored at −20° C.
The membrane preparation is thawed and centrifuged at 2° C. for 10 min at 27,000×g. The pellet is washed twice with 20 ml 50 mM Tris-citrate, pH 7.1 using an Ultra-Turrax homogeniser and centrifuged for 10 min at 27,000×g. The final pellet is resuspended in 50 mM Tris-citrate, pH 7.1 (500 ml buffer per g of original tissue), and then used for binding assays. Aliquots of 0.5 ml tissue are added to 25 μl of test solution and 25 μl of ^3H-FNM (1 nM, final concentration), mixed and incubated for 40 min at 2° C. Non-specific binding is determined using Clonazepam (1 μM, final concentration). After incubation the samples are added 5 ml of ice-cold buffer and poured directly onto Whatman GF/C glass fibre filters under suction and immediately washed with 5 ml ice-cold buffer. The amount of radioactivity on the filters is determined by conventional liquid scintillation counting. Specific binding is total binding minus non-specific binding.
25-75% inhibition of specific binding must be obtained, before calculation of an IC50.
The test value will be given as IC50 (the concentration (μM) of the test substance which inhibits the specific binding of ^3H-FNM by 50%). […]
For the compound `CC(=NO)c1ccc2c(c1)ncn2-c1cccc(COCc2ncnn2C)c1` [Compound 22a, 1-{1-[3-(2-Methyl-2H-[1,2,4]triazol-3-ylmethoxymethyl)-phenyl]-1H-benzoimidazol-5-yl}-ethanone oxime], the IC50 amounted to 2.1 nM. Same read-out and setting: next, `CC(O)c1ccc2c(c1)ncn2-c1cccc(COCc2ncnn2C)c1` (centres unmarked) [Compound 23, 1{-1-[3-(2-Methyl-2H-[1,2,4]triazol-3-ylmethoxymethyl)-phenyl]-1H-benzoimidazol-5-yl}-ethanol]: 22 nM; `CCOC(C)c1ccc2c(c1)ncn2-c1cccc(COCc2ncnn2C)c1` (centres unmarked) [Compound 24b, 5-(1-Ethoxy-ethyl)-1-[3-(2-methyl-2H-[1,2,4]triazol-3-ylmethoxymethyl)-phenyl]-1H-benzoimidazole]: 9.2 nM.

The values above are taken from patent publication US7776900B2, “Benzimidazole derivatives and their use for modulating the GABAAreceptor complex” (Neurosearch A/S, priority 2005, dated 2010).
